Experimental data published in patent US8835466B2, “Synthesis and uses of pyroglutamic acid derivatives” (Prodimed, S.A., priority 2006, dated 2014).

What was measured:
[1] = test system: Lewis lung cells (lung cell carcinoma); test: Effect of 9d in combination with Cisplatin on tumour growth, Lewis lung (Example 13); assay type: in vivo, C57BL/6J mice; conditions: for SURFACE Overall values (Mean) / SURFACE Overall values (Median) / VOLUME Overall values (Mean) / VOLUME Overall values (Median): Cisplatin 65 μg, or both
Description: This assay was made in order to check the effect on in vivo tumour growth in mice challenged with Lewis lung cells. Their effect will be compared with the combination of chemotherapeutic agents plus 9d and/or placebo. Lewis Lung is a lung cell carcinoma originated in C57BL/6J mice strain, and therefore syngeneic in mice with C57BL/6J genetic background (Rodrigo Garzón M, Tirapu Fernández de la Cuesta […], Noel […] and […]. Use of Gene Therapy in a Subcutaneous Murine Model of Lung Cancer. Arch Bronconeumology. 42: 526-532; 2006). Lewis lung cells (CLS, Eppelheim, Germany) were maintained in vitro by serial passages every 3-4 days. […] Louis, Mo., USA) by seeding 5×10^6 cells onto 75 cm^2 culture flasks. Subcultures were carried out by collecting detached cells after treatment with trypsin-EDTA (Sigma, St. Louis, Mo., USA). Tumour cells, collected from 48 hour cultures, were used as source of Lewis Lung cells for the studies described below. […] Tumours were established by subcutaneous inoculation in the right hind flank. Mice were inoculated with 0.2 mL containing 2×10^5 viable cells. The day of subcutaneous inoculation will be considered Day 0 of the test. Mice were observed daily and the tumour size recorded twice a week. This was carried out by measuring two perpendicular diameters (d1/d2) with a calliper. These measures were used to obtain both tumour surface and volume: […] Results were expressed as single values and/or as the mean±SD or median from each experimental group. A case-control study was performed with treated and control mice in order to determine whether differences between placebo, 9d, Cisplatin or 9d+Cisplatin were present. The data obtained (tumour surface and volume) were tested for Normal distribution within the groups (Kolmogorov Smirnov test p<0.05). […] The U-test of Mann Withney was chosen for being one of the better known non-parametrical tests, anyway, results for this test are equivalent both to those of Wilcoxon's sum of ranges and Kruskal-Wallis two-groups test. We excluded of the study animals that have undetectable or unscored tumour on 31th day after tumour inoculation. Due to the high dispersion of data, outlayers were excluded of the study.

[2] = test system: KLN 205 cells (lung cell carcinoma); test: Effect of 9d in combination with Cisplatin on tumour growth, KLN 205 (Example 11); assay type: in vivo, DBA/2 mice; conditions: for Tumour surface, overall values (Mean) / Tumour surface, overall values (Median) / Tumour volume, overall values (Mean) / Tumour volume, overall values (Median): 9d 250 ng, Cisplatin 65 μg i.p. days 3, 6, 10, 13, 17, 20
Protocol: This was carried out by measuring two perpendicular diameters (d1/d2) with a calliper. These measures were used to obtain both tumour surface and volume: […] Results were expressed as single values and/or as the mean±SD or median from each experimental group. This assay was made in order to check the effect on in vivo tumour growth in mice challenged with KLN 205 cells. Their effect was compared with the combination of Cisplatin plus 9d and/or placebo. KLN 205 is a lung cell carcinoma originated in DBA/2 mouse strain, and therefore syngeneic in mice with DBA/2 genetic background (Kaneko T and […]. Growth characteristics and drug responses of a murine lung carcinoma in vitro and in vivo. Cancer Res. 38: 2084-2090; 1978). KLN 205 cells (CLS, Eppelheim, Germany) were maintained in vitro by serial passages every 3-4 days. […] Louis, Mo., USA) by seeding 5×10^6 cells onto 75 cm^2 culture flasks. Subcultures were carried out by collecting detached cells after treatment with trypsin-EDTA (Sigma, St. Louis, Mo., USA). Tumour cells, collected from 48 hour cultures, were used as source of KLN 205 cells for the studies described below. […] Tumours were established by subcutaneous inoculation in the right hind flank. Mice (DBA/2) were inoculated with 0.2 mL containing 2×10^5 viable KLN 205 cells. The day of subcutaneous inoculation will be considered Day 0 of the test. A case-control study was performed with treated and control mice in order to determine whether differences between placebo, 9d, Cisplatin or 9d+Cisplatin were present. […] The t-test was chosen for being one of the better known parametrical tests.

[3] = 9d 250 ng, day 0 after tumour inoculation
[4] = 9d 250 ng, day 10 after tumour inoculation
[5] = 9d 250 ng, day 13 after tumour inoculation
[6] = 9d 250 ng, day 17 after tumour inoculation
[7] = 9d 250 ng, day 20 after tumour inoculation
[8] = 9d 250 ng, day 24 after tumour inoculation
[9] = 9d 250 ng, day 27 after tumour inoculation
[10] = 9d 250 ng, day 31 after tumour inoculation
[11] = day 10 after tumour inoculation
[12] = day 13 after tumour inoculation
[13] = day 17 after tumour inoculation
[14] = day 20 after tumour inoculation
[15] = day 24 after tumour inoculation
[16] = day 27 after tumour inoculation
[17] = day 31 after tumour inoculation
[18] = day 34 after tumour inoculation
[19] = day 38 after tumour inoculation

SMILES: Br.N[C@]1(C[n+]2ccccc2)C[C@H](C(=O)O)NC1=O.[Br-] (single isomer, unassigned; isomer 4) [isomer 4, 3S,5R-1-(3-Amino-5-carboxy-2-oxopyrrolidin-3-ylmethyl)pyridinium bromide hidrobromide]
- Inhibition of the in vivo growth of Lewis lung tumour in inbred mice, in words ([1]; 9d 250 ng, Cisplatin 65 μg i.p.): inhibit the in vivo growth
- SURFACE Overall values (Mean) [1, 3]: 0 mm^2
- SURFACE Overall values (Median) [1, 3]: 0 mm^2
- VOLUME Overall values (Mean) [1, 3]: 0 mm^3
- VOLUME Overall values (Median) [1, 3]: 0 mm^3
- SURFACE Overall values (Mean) [1, 4]: 2 mm^2
- SURFACE Overall values (Median) [1, 4]: 0 mm^2
- VOLUME Overall values (Mean) [1, 4]: 2.27 mm^3
- VOLUME Overall values (Median) [1, 4]: 0 mm^3
- SURFACE Overall values (Mean) [1, 5]: 6.47 mm^2
- SURFACE Overall values (Median) [1, 5]: 4 mm^2
- VOLUME Overall values (Mean) [1, 5]: 12.5 mm^3
- VOLUME Overall values (Median) [1, 5]: 4 mm^3
- SURFACE Overall values (Mean) [1, 6]: 20.13 mm^2
- SURFACE Overall values (Median) [1, 6]: 24 mm^2
- VOLUME Overall values (Mean) [1, 6]: 52.73 mm^3
- VOLUME Overall values (Median) [1, 6]: 48 mm^3
- SURFACE Overall values (Mean) [1, 7]: 34.33 mm^2
- SURFACE Overall values (Median) [1, 7]: 36 mm^2
- VOLUME Overall values (Mean) [1, 7]: 112.3 mm^3
- VOLUME Overall values (Median) [1, 7]: 108 mm^3
- SURFACE Overall values (Mean) [1, 8]: 60.6 mm^2
- SURFACE Overall values (Median) [1, 8]: 80 mm^2
- VOLUME Overall values (Mean) [1, 8]: 253.77 mm^3
- VOLUME Overall values (Median) [1, 8]: 320 mm^3
- SURFACE Overall values (Mean) [1, 9]: 104.8 mm^2
- SURFACE Overall values (Median) [1, 9]: 88 mm^2
- VOLUME Overall values (Mean) [1, 9]: 557.13 mm^3
- VOLUME Overall values (Median) [1, 9]: 364.5 mm^3
- SURFACE Overall values (Mean) [1, 10]: 141.8 mm^2
- SURFACE Overall values (Median) [1, 10]: 130 mm^2
- VOLUME Overall values (Mean) [1, 10]: 887.17 mm^3
- VOLUME Overall values (Median) [1, 10]: 665.5 mm^3
- Differences in Lewis Lung tumour growth rate vs. placebo, statistical significance p (Mann-Whitney U test) ([1]; either in surface or volume, all days scored after the day 13th): < 0.05
- Tumour surface, overall values (Mean) ([2]; day 0 after tumour inoculation): 0 mm^2
- Tumour surface, overall values (Median) ([2]; day 0 after tumour inoculation): 0 mm^2
- Tumour volume, overall values (Mean) ([2]; day 0 after tumour inoculation): 0 mm^3
- Tumour volume, overall values (Median) ([2]; day 0 after tumour inoculation): 0 mm^3
- Tumour surface, overall values (Mean) [2, 11]: 5.38 mm^2
- Tumour surface, overall values (Median) [2, 11]: 4 mm^2
- Tumour volume, overall values (Mean) [2, 11]: 8.81 mm^3
- Tumour volume, overall values (Median) [2, 11]: 4 mm^3
- Tumour surface, overall values (Mean) [2, 12]: 17.25 mm^2
- Tumour surface, overall values (Median) [2, 12]: 16 mm^2
- Tumour volume, overall values (Mean) [2, 12]: 43.38 mm^3
- Tumour volume, overall values (Median) [2, 12]: 32 mm^3
- Tumour surface, overall values (Mean) [2, 13]: 29.88 mm^2
- Tumour volume, overall values (Mean) [2, 13]: 94.56 mm^3
- Tumour surface, overall values (Mean) [2, 14]: 57.06 mm^2
- Tumour surface, overall values (Median) [2, 14]: 36 mm^2
- Tumour volume, overall values (Mean) [2, 14]: 246.03 mm^3
- Tumour volume, overall values (Median) [2, 14]: 108 mm^3
- Tumour surface, overall values (Mean) [2, 15]: 81.38 mm^2
- Tumour surface, overall values (Median) [2, 15]: 64 mm^2
- Tumour volume, overall values (Mean) [2, 15]: 393.25 mm^3
- Tumour volume, overall values (Median) [2, 15]: 256 mm^3
- Tumour surface, overall values (Mean) [2, 16]: 113.5 mm^2
- Tumour surface, overall values (Median) [2, 16]: 105.5 mm^2
- Tumour volume, overall values (Mean) [2, 16]: 611.75 mm^3
- Tumour volume, overall values (Median) [2, 16]: 446.75 mm^3
- Tumour surface, overall values (Mean) [2, 17]: 135.31 mm^2
- Tumour surface, overall values (Median) [2, 17]: 132.5 mm^2
- Tumour volume, overall values (Mean) [2, 17]: 777.53 mm^3
- Tumour volume, overall values (Median) [2, 17]: 628.75 mm^3
- Tumour surface, overall values (Mean) [2, 18]: 168.81 mm^2
- Tumour surface, overall values (Median) [2, 18]: 170.5 mm^2
- Tumour volume, overall values (Mean) [2, 18]: 1068.3 mm^3
- Tumour volume, overall values (Median) [2, 18]: 937.75 mm^3
- Tumour surface, overall values (Mean) [2, 19]: 214.44 mm^2
- Tumour surface, overall values (Median) [2, 19]: 227.5 mm^2
- Tumour volume, overall values (Mean) [2, 19]: 1504.7 mm^3
- Tumour volume, overall values (Median) [2, 19]: 1478.8 mm^3
- KLN 205 tumour growth vs. placebo, tendency in words ([2]; either in surface or volume, all days scored after day 31th, t-test): significant tendency
- Differences in KLN 205 tumour growth rate vs. placebo, in words ([2]; t-test, 250 ng i.p.): not differences
